Assay results as given in patent publication US11752125B2, “Anti-neuroinflammatory and protective compounds in Achillea fragrantissima” (THE STATE OF ISRAEL MINISTRY OF AGRICULTURE & RURAL …, priority 2013, dated 2023).

Legend:
Type in all cases: cell-based, rat
IL-1β = IL-1β secretion from LPS-stimulated microglial cells (ELISA); conditions: LPS 100 ng/mL, 24 h
Description: (§1) Cultures of primary rat microglial cells were prepared from cerebral cortices of 1-2 day-old neonatal Wistar rats as described. Microglial cells were seeded at 24-well plastic plates at 1×10^5/well in RPMI-1640 containing 2% FBS, 2 mM glutamine, 100 U/mL penicillin, 100 µg/mL streptomycin, 1 mM sodium pyruvate, and 50 μM β-mercaptoethanol. Cells were cultured for 36 h before treatments. The research was conducted in accordance with the NIH guide for the care and use of laboratory animals, and was approved by the Institutional Animal Care and Use Committee of The Volcani Center, Agricultural Research Organization (IL-135/07, approval date Apr. 11, 2007). All efforts were made to minimize animal suffering, and to reduce the number of animals used.
For IL-1β measurements, 3.5×10^4 cells/well were plated on a 24-well tissue culture plate. After 24 h of incubation in DMEM containing 10% FBS, cells were stimulated with LPS (100 ng/mL) and treated with different concentrations of achillolide A. Conditioned media were collected twenty four hours later, and were tested with a rat IL1β ELISA kit (Novus Biologicals; CO, USA), according to the manufacturer's instructions.
2. Plate microglial cells (3.5×10^4 cells/well) on a 24-well tissue culture plate, in DMEM containing 10% FBS, 2 mM glutamine, 100 U/ml penicillin and 100 micrograms/mL streptomycin;
Microglial cells were treated with different concentrations of TTF, followed by stimulation with LPS (100 ng/mL). After 24 h, conditioned media were collected and tested for cytokine levels by ELISA. Cell viability was determined using the crystal violet assay (FIG. 9C). Values represent the means±SEM (n=4 for each treatment).
Microglial cells were treated with 20 μg/mL of achillolide A, followed by stimulation with LPS (4.5 ng/mL). After 5 h the levels of the indicated transcripts were measured by quantitative real-time PCR and the relative quantity (RQ) of the different transcripts were determined. […] The results are expressed as percentages relative to LPS-stimulated cells. […]

NO = NO (nitrite) production by LPS-activated microglial cells (Griess); conditions: LPS 4.5 ng/mL, 20 h
Description: as §1
For NO measurements, 1×10^5 microglial cells/well were plated in a 24-well tissue culture plate. Cells were stimulated with LPS (4.5 ng/mL) and concomitantly treated with achillolide A or a reference drug. NO levels in the culture medium were estimated with Griess reagent.
3. Activate microglial cells with lipopolysaccharide (LPS, 4.5 nanograms/mL);
In FIG. 21 A, microglial cells were treated with different concentrations of achillolide A, dexamethasone or memantine (as reference drugs) and were concomitantly activated by LPS (4.5 ng/mL) for 20 h. Cell conditioned supernatants were collected, and the levels of NO were measured using Griess reaction. Cytotoxicity was measured using the LDH method (FIG. 21B). Values represent the mean±SEM (n=12 for each treatment). ** p<0.01; ***p<0.001 relative to cells that were treated to LPS only.

glutamate = experiment: Glutamate secretion from LPS-activated microglial cells; conditions: LPS 100 ng/mL, 20 h
Description: For glutamate measurements, 3.5×10^4 cells/well were plated on a 24-well tissue culture plate. After 24 h of incubation in DMEM containing 10% FBS, cells were stimulated with LPS (100 ng/mL) and treated with different concentrations of achillolide A. Conditioned media were collected twenty hours later, and were tested for glutamate levels using a colorimetric enzymatic assay kit (glutamate assay kit, BioVision, CA, USA) according to the manufacturer's instructions. 7. Measure the levels of glutamate using a colorimetric enzymatic assay kit (glutamate assay kit, BioVision, CA, USA) according to the manufacturer's instructions. Microglial cells were treated with the indicated concentrations of achillolide A, followed by stimulation with LPS (100 ng/mL). After 20 h, conditioned media were collected and tested for glutamate levels by a commercial kit. Values represent the means±SEM (n=4 for each treatment). ** p<0.01; *** p<0.001, compared to LPS-stimulated cells.

microglial cells = experiment: Cellular antioxidant activity (ABAP peroxyl radicals) in microglial cells; conditions: ABAP 0.6 mM, dexamethasone at nanomolar concentrations
Description: Intracellular ROS production was detected using the non-fluorescent cell permeating compound, 2′7′-dichlorofluorescein diacetate (DCF-DA). DCF-DA is hydrolyzed by intracellular esterases and then oxidized by ROS to a fluorescent compound 2′-7′-DCF. Peroxyl radicals are generated by thermolysis of 2,2′-Azobis(amidinopropane) (ABAP) at physiological temperature. ABAP decomposes at approximately 1.36×10^−6s^−1 at 37° C., producing at most 1×10^12 radicals/mL/s. Microglial cells (130,000 cells/well) were plated in DMEM containing 2% FBS, 8.4 mM HEPES, 2 mM glutamine, 100 U/mL penicillin and 100 μg/mL streptomycin, onto 24 wells plates. In order to measure the ability of achillolide A to enter the cells and prevent the formation of DCF by ABAP-generated peroxyl radicals, cells were incubated for 1 h with achillolide A. Then cells were preloaded with DCF-DA for 30 min, washed twice with PBS, and ABAP (0.6 mM final concentration) was then added. The fluorescence, which indicates ROS levels, was measured in a plate reader with excitation at 485 nm and emission at 520 nm.
Cells were incubated for 1 h with different concentrations of achillolide A. Then, the cells were pre-loaded with DCF-DA for 30 min and washed. ABAP (0.6 mM) was added to the culture and ROS levels were measured at the indicated time points. […]

SMILES: C[C@@H]1C[C@H]2[C@@H]3CCC4=CC(=O)C=C[C@]4(C)[C@@]3(F)[C@@H](O)C[C@]2(C)[C@@]1(O)C(=O)CO [dexamethasone, reference compound]
- inhibition of IL-1β secretion (IL-1β): 85%
- inhibition of NO produced by the activated cells (NO): 90%
- inhibition of the LPS-induced levels of secreted glutamate (glutamate): 90%
- inhibition of the ABAP-induced increase in ROS fluorescence (microglial cells): 75%
